Measured values taken from patent US6352958B1, “Cycloimido-substituted benzofused heterocyclic herbicides” (FMC Corporation, priority 1997, dated 2002).

Columns and labels:
Assay type in all cases: in vivo
[1] = tested on: velvetleaf (Abutilon theophrasti); test: Preemergence herbicidal activity, velvetleaf; settings: Rate of Application 0.3 Kg/Ha, examined after 12-17 days
[2] = tested on: wheat (Triticum aestivum var. Lew); test: Postemergence herbicidal activity, wheat; settings: rate of application 0.3 Kg/Ha, rated after 12-17 days
[3] = tested on: blackgrass (Aloepecurus myosuroides); test: Preemergence herbicidal activity, blackgrass; settings: Rate of Application 0.3 Kg/Ha, examined after 12-17 days
[4] = tested on: blackgrass (Aloepecurus myosuroides); test: Postemergence herbicidal activity, blackgrass; settings: rate of application 0.3 Kg/Ha, rated after 12-17 days
[5] = tested on: soybean (Glycine max var. Winchester); test: Postemergence herbicidal activity, soybean; settings: rate of application 0.3 Kg/Ha, rated after 12-17 days
[6] = tested on: morningglory (Ipomea lacunosa or Ipomea hederacea); test: Preemergence herbicidal activity, morningglory; settings: Rate of Application 0.3 Kg/Ha, examined after 12-17 days
[7] = tested on: field corn (Zea mays var. Pioneer 3732); test: Preemergence herbicidal activity, corn; settings: Rate of Application 0.3 Kg/Ha, examined after 12-17 days
[8] = tested on: velvetleaf (Abutilon theophrasti); test: Postemergence herbicidal activity, velvetleaf; settings: rate of application 0.3 Kg/Ha, rated after 12-17 days
[9] = tested on: green foxtail (Setaria viridis); test: Preemergence herbicidal activity, green foxtail; settings: Rate of Application 0.3 Kg/Ha, examined after 12-17 days
[10] = tested on: morningglory (Ipomea lacunosa or Ipomea hederacea); test: Postemergence herbicidal activity, morningglory; settings: rate of application 0.3 Kg/Ha, rated after 12-17 days
[11] = tested on: wheat (Triticum aestivum var. Lew); test: Preemergence herbicidal activity, wheat; settings: Rate of Application 0.3 Kg/Ha, examined after 12-17 days
[12] = tested on: common chickweed (Stellaria media); test: Postemergence herbicidal activity, chickweed; settings: rate of application 0.3 Kg/Ha, rated after 12-17 days
[13] = tested on: field corn (Zea mays var. Pioneer 3732); test: Postemergence herbicidal activity, corn; settings: rate of application 0.3 Kg/Ha, rated after 12-17 days
[14] = tested on: green foxtail (Setaria viridis); test: Postemergence herbicidal activity, green foxtail; settings: rate of application 0.3 Kg/Ha, rated after 12-17 days
[15] = tested on: common cocklebur (Xanthium strumarium L.); test: Preemergence herbicidal activity, cocklebur; settings: Rate of Application 0.3 Kg/Ha, examined after 12-17 days
[16] = tested on: Johnsongrass (Sorghum halepense); test: Postemergence herbicidal activity, johnsongrass; settings: rate of application 0.3 Kg/Ha, rated after 12-17 days
[17] = tested on: common cocklebur (Xanthium strumarium L.); test: Postemergence herbicidal activity, cocklebur; settings: rate of application 0.3 Kg/Ha, rated after 12-17 days
[18] = tested on: Johnsongrass (Sorghum halepense); test: Preemergence herbicidal activity, johnsongrass; settings: Rate of Application 0.3 Kg/Ha, examined after 12-17 days
[19] = tested on: soybean (Glycine max var. Winchester); test: Preemergence herbicidal activity, soybean; settings: Rate of Application 0.3 Kg/Ha, examined after 12-17 days
[20] = tested on: common chickweed (Stellaria media); test: Preemergence herbicidal activity, chickweed; settings: Rate of Application 0.3 Kg/Ha, examined after 12-17 days

Structure (SMILES) | PREEMERGENCE HERBICIDAL ACTIVITY (% CONTROL) ABUTH [1] [%] | Postemergence herbicidal activity (% control) WHT [2] [%] | PREEMERGENCE HERBICIDAL ACTIVITY (% CONTROL) ALOMY [3] [%] | Postemergence herbicidal activity (% control) ALOMY [4] [%] | Postemergence herbicidal activity (% control) SOY [5] [%] | PREEMERGENCE HERBICIDAL ACTIVITY (% CONTROL) IPOSS [6] [%] | PREEMERGENCE HERBICIDAL ACTIVITY (% CONTROL) CRN [7] [%] | Postemergence herbicidal activity (% control) ABUTH [8] [%] | PREEMERGENCE HERBICIDAL ACTIVITY (% CONTROL) SETVI [9] [%] | Postemergence herbicidal activity (% control) IPOSS [10] [%] | PREEMERGENCE HERBICIDAL ACTIVITY (% CONTROL) WHT [11] [%] | Postemergence herbicidal activity (% control) STEME [12] [%] | Postemergence herbicidal activity (% control) CRN [13] [%] | Postemergence herbicidal activity (% control) SETVI [14] [%] | PREEMERGENCE HERBICIDAL ACTIVITY (% CONTROL) XANPE [15] [%] | Postemergence herbicidal activity (% control) SORHA [16] [%] | Postemergence herbicidal activity (% control) XANPE [17] [%] | PREEMERGENCE HERBICIDAL ACTIVITY (% CONTROL) SORHA [18] [%] | PREEMERGENCE HERBICIDAL ACTIVITY (% CONTROL) SOY [19] [%] | PREEMERGENCE HERBICIDAL ACTIVITY (% CONTROL) STEME [20] [%]
COCc1nc2c(-n3c(=O)cc(C(F)(F)F)n(C)c3=O)c(F)cc(Cl)c2[nH]1 [Compound 370] | 100 | 95 | 90 | 100 | 100 | 100 | 95 | 100 | 100 | 100 | 100 | 100 | 100 | 100 | 100 | 100 | 100 | 100 | 100 | 100
CCOC(=O)CCc1nc2c(-n3c(=O)cc(C(F)(F)F)n(C)c3=O)c(F)cc(Cl)c2[nH]1 [Compound 372] | 100 | 100 | 80 | 100 | 100 | 100 | 95 | 100 | 100 | 100 | 90 | 100 | 100 | 100 | 100 | 100 | 100 | 80 | 100 | 100
Cn1c(C(F)(F)F)cc(=O)n(-c2c(F)cc(Cl)c3[nH]c(C4CCCCC4)nc23)c1=O [Compound 373] | 100 | 80 | 70 | 100 | 100 | 100 | 90 | 100 | 100 | 100 | 70 | 100 | 100 | 100 | 100 | 100 | 100 | 90 | 100 | 100
Cn1c(C(F)(F)F)cc(=O)n(-c2c(F)cc(Cl)c3[nH]c(C45CC6CC(CC(C6)C4)C5)nc23)c1=O [Compound 374] | 100 | 25 | 40 | 25 | 80 | 95 | 10 | 100 | 100 | 95 | 0 | 80 | 30 | 80 | 80 | 60 | 100 | 75 | 30 | 90
Cn1c(C(F)(F)F)cc(=O)n(-c2c(F)cc(Cl)c3nc(-c4ccccc4)[nH]c23)c1=O [Compound 375] | 100 | 40 | 80 | 90 | 95 | 80 | 90 | 100 | 100 | 95 | 30 | 100 | 90 | 80 | 80 | 100 | 100 | 95 | 80 | 95
Cn1c(C(F)(F)F)cc(=O)n(-c2c(F)cc(Cl)c3c2nc(C(F)(F)F)n3C)c1=O [Compound 399] | 100 | 30 | 60 | 50 | 95 | 95 | 95 | 100 | 100 | 100 | 80 | 100 | 70 | 70 | 70 | 60 | 100 | 0 | 95 | 100
CCOC(=O)c1cc2c(-n3c(=O)cc(C(F)(F)F)n(C)c3=O)c(F)cc(Cl)c2[nH]1 [Compound 493] | 100 | 60 | 75 | 65 | 95 | 100 | 90 | 100 | 100 | 100 | 70 | 80 | 90 | 100 | 70 | 100 | 100 | 100 | 80 | 100
CCOC(=O)c1cc2c(-n3c(=O)cc(C(F)(F)F)n(C)c3=O)c(F)cc(Cl)c2n1C [Compound 522] | 100 | 45 | 75 | 50 | 90 | 100 | 80 | 100 | 100 | 100 | 40 | 100 | 90 | 100 | 50 | 100 | 100 | 100 | 90 | 100
